# Measurements from US9975853B2, “Tetrahydroisoquinolinone derivatives and their use in the inhibition of the HSP70 protein” (Julius-Maximilians-Universitaet Wuerzburg, priority 2014, dated 2018).
# “Also recorded” adds a separate entry of the source.
# Columns and labels:
# HSP72 = target: T1, HSP72 (Homo sapiens, UniProt P0DMV8); experiment: Western blot analysis of HSP72 expression in INA-6 cells; format: cell-based; details: INA-6, 0.6 μM, with Z-VAD-FMK 50 μM
# T1 construct: endogenous in cells; host or cells: INA-6 multiple myeloma cells
# Method: (§1) Western Blot Analysis. Protein expression levels were determined with Western blotting procedures (M. Chatterjee, et al., Blood 2002, 100, 3311-3318). Following separation by SDS-PAGE, proteins were transferred onto nitrocellulose membranes (Schleicher & Schuell, Dassel, Germany) and stained with antibodies against Hsp72, Hsp73, Hsp90 (all from Enzo Life Science, Lörrach, Germany), AIF, lamin A, caspases 9 and 3, PARP (all from Santa Cruz, Heidelberg, Germany). An anti-α tubulin antibody (Sigma, Deisenhofen, Germany) was employed to assess equal loading. Secondary antibodies used were anti-rat (Enzo Life Science), anti-rabbit and anti-mouse (both from GE Healthcare, Little Chalfont, UK). […] The heat shock proteins HSP72 and HSP73 critically interact with HSP90 in order to mediate an essential chaperone function for a multitude of proteins including various signaling intermediates. According to an established HSP72/73-dependent client protein signature and its role for survival in MM, the proposed anti-HSP72/73 effect of trans-7b in the INA-6 multiple myeloma (MM) cell line model was evaluated. […] Lysates were cleared by centrifugation, measured by quantitative protein assay (Bio-Rad, München, Germany) and subjected to SDS gel electrophoresis. […]
# HSP73 = target: T2, HSP73 (Homo sapiens, UniProt P11142); experiment: Western blot analysis of HSP73 expression in INA-6 cells; format: cell-based; details: INA-6, 0.6 μM, with Z-VAD-FMK 50 μM
# T2 construct: endogenous in cells; host or cells: INA-6 multiple myeloma cells
# Method: as §1
# HSP90 = experiment: Western blot analysis of HSP90 expression in INA-6 cells; format: cell-based, human; details: INA-6, 0.6 μM, with Z-VAD-FMK 50 μM
# Method: as §1
# [1] = system: HSP70/HSP90 multi-chaperone client proteins; experiment: Western blot analysis of HSP70/HSP90 chaperone-dependent signaling intermediates and substrates in INA-6 cells; format: cell-based, human; details: INA-6, 0.6 μM
# Method: as §1
# [2] = system: apoptosis-inducing factor (AIF); experiment: Apoptosis assay: nuclear translocation of AIF in INA-6 cells (Western blot); format: cell-based, human; details: INA-6, 0.6 μM, 8 hours, nuclear pellets
# Method: Apoptosis Assays. Hsp70-dependent prevention of apoptosis was investigated by analyses of the apoptosis-inducing factors (AIF) and of the caspases 9 and 3 in INA-6 cells. INA-6 cells were treated with 0.6 μM of compound trans-7b for 8 hours prior to analyze nuclear translocation of AIF. Staining of the nuclear protein lamin A was used as a loading control. […] Analysis of cleavage of the bona fide caspase substrate PARP served as a control for caspase activation. Co-treatment with the pan-caspase inhibitor Z-VAD-FMK (50 μM) was employed as another specificity control.
# Western Blot Analysis. Protein expression levels were determined with Western blotting procedures (M. Chatterjee, et al., Blood 2002, 100, 3311-3318). Following separation by SDS-PAGE, proteins were transferred onto nitrocellulose membranes (Schleicher & Schuell, Dassel, Germany) and stained with antibodies against Hsp72, Hsp73, Hsp90 (all from Enzo Life Science, Lörrach, Germany), AIF, lamin A, caspases 9 and 3, PARP (all from Santa Cruz, Heidelberg, Germany). […] According to an established HSP72/73-dependent client protein signature and its role for survival in MM, the proposed anti-HSP72/73 effect of trans-7b in the INA-6 multiple myeloma (MM) cell line model was evaluated. […] Lysates were cleared by centrifugation, measured by quantitative protein assay (Bio-Rad, München, Germany) and subjected to SDS gel electrophoresis. […]
# INA-6 cells = experiment: Viability of INA-6 cells under concomitant treatment with HSP90 inhibitor NVP-AUY922; format: cell-based, human; details: AUY922 7.5 nM plus trans-7b 3.5 μM, sublethal concentrations
# Method: The heat shock protein HSP90, which critically cooperates with HSP72 and HSP73 to mediate a chaperone function for a multitude of proteins, is regarded as a reasonable therapeutic target in MM. […] Therefore, potential effects of a concomitant treatment of trans-7b with the HSP90 inhibitor NVP-AUY922 on viability of INA-6 cells were analyzed. INA-6 cells were incubated either with DMSO (as a solvent control), sublethal concentrations of AUY922 (7.5 nM) or trans-7b (3.5 μM) or with a combination of both. Viability was measured by Annexin V-FITC/propidium iodide double staining (BenderMedSystems, Vienna, Austria) according to the manufacturer's instructions. Cells were washed in PBS, incubated for 15 minutes in 100 ml binding buffer (10 mM HEPES/NaOH, pH 7.4, 140 mM NaCl, 2.5 mM CaCl2) containing 2.5 mL annexin V-FITC mix and 1 mg/ml PI and analyzed by flow cytometry (FACSCalibur/CELLQuest; Becton Dickinson, Heidelberg, Germany). Whereas early apoptosis is characterized by positive annexin V-FITC staining reaction, cells in a late apoptotic stage lose their membrane integrity and additionally incorporate PI. […] Raw data of three independent measurements were set in relation to their respective DMSO controls, and means and standard deviations were calculated using the Graphpad Prism software (Graphpad, La Jolla, USA).
# T1 sequence (P0DMV8 whole entry): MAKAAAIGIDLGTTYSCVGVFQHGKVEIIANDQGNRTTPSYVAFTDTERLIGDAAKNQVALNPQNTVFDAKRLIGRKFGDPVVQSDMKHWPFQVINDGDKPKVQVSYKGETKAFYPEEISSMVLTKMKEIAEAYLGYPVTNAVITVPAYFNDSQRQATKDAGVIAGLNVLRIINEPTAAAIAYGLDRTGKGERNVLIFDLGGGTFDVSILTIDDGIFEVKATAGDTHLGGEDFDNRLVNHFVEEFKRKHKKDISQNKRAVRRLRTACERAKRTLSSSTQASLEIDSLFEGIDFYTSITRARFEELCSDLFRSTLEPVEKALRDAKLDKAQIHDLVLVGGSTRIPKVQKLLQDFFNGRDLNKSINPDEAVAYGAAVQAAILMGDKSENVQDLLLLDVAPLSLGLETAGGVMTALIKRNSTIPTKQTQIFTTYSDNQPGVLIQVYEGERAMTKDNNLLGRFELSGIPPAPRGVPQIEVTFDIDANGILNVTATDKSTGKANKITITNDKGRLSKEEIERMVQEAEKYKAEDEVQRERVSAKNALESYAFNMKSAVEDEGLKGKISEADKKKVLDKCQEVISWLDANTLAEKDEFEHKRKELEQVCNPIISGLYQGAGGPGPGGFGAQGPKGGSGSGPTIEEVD
# T2 sequence (P11142 whole entry): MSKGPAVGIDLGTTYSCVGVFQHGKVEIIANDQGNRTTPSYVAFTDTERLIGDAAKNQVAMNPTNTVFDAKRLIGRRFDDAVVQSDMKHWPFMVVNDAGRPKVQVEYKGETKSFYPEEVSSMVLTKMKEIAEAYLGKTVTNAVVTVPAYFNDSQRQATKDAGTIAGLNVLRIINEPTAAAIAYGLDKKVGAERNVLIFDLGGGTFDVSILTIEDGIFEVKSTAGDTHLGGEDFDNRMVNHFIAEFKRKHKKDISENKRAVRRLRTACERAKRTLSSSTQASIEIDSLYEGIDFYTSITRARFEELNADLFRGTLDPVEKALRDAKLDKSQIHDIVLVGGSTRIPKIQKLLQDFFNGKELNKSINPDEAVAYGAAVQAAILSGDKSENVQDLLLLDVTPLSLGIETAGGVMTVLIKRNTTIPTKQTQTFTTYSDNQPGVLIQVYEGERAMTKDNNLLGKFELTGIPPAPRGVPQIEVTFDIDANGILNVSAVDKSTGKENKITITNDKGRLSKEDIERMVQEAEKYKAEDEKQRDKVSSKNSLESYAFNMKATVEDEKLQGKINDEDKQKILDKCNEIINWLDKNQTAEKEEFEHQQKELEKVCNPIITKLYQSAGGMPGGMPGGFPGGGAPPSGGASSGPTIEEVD
compound,measurement,setting,value
"COc1ccc(C2C(C(=O)Nc3cccc(C)n3)c3ccccc3C(=O)N2c2ccccc2)cc1 (stereo not drawn) [trans-7b, trans-3-(4-Methoxyphenyl)-N-(6-methylpyridin-2-yl)-1-oxo-2-phenyl-1,2,3,4-tetrahydroisoquinoline-4-carboxamide]",HSP72 constitutive expression level,HSP72,decreases; also recorded: reduced
same,HSP73 constitutive expression level,HSP73,decreases; also recorded: reduced
same,HSP90 expression,HSP90,remains unchanged
same,"AKT, C-Raf, RIP, IKKα and MEK levels",[1],strongly downregulated
same,"p-MEK, p-ERK and pSTAT3 levels",[1],downregulated
same,nuclear translocation of activated AIF,[2],shifting from the cytosol to the nucleus
same,effect on the apoptotic effect of the HSP90 inhibitor NVP-AUY922 (viability),INA-6 cells,strongly enhanced
